Reference: PubChem BioAssay AID1996
In brackets after ≈: the same amount, converted by molar mass.

conditions: buffer; pH 7.4; 200.0 µM

Row | SMILES | solubility kinetic
1 | COCCNC(=O)c1cc2cc3ccc(OC)cc3nc2o1 | 42.1 µg/mL (≈ 140 µM)
2 | CN(C)/C=C/C(=O)c1ccc(Cl)s1 | > 32.4 µg/mL
3 | COC(=O)Cn1c(=O)oc2ccc(C)cc21 | > 33.2 µg/mL
4 | O=C(NC(=S)NCc1ccccc1)c1ccccc1Br | < 0.4 µg/mL
5 | Cc1ccc(C)c(N2CC(C(=O)Nc3cc(C)on3)CC2=O)c1 (configuration not stated) | 40.3 µg/mL (≈ 129 µM)
6 | Nc1ncccc1OCc1ccc(Br)cc1 | 37.3 µg/mL (≈ 134 µM)
7 | CN(C)c1ccc(NC(=O)Nc2csc3ccccc23)cc1 | 0.7 µg/mL (≈ 2.25 µM)
8 | N#Cc1ccc(-c2ccc(OCC(O)CN3CCCCC3)cc2)cc1 (configuration not stated) | 42.4 µg/mL (≈ 126 µM)
9 | COc1cc(Cl)c(C)cc1NC(=O)CN1CCCCCC1 | < 0.3 µg/mL
10 | O=C(Nc1ccccc1)Nc1nc(-c2ccccc2)cs1 | < 0.2 µg/mL
11 | CNC(=S)NC1CC2CCCC(C1)N2Cc1ccccc1OC (configuration not stated) | > 50 µg/mL
12 | CC1(C)C(=O)Nc2ccccc2N1C(=O)COc1ccccc1C#N | 21.5 µg/mL (≈ 64.1 µM)
13 | O=C(c1cccc([N+](=O)[O-])c1)N1CCCC(C(=O)N2CCCCC2)C1 (configuration not stated) | > 51.8 µg/mL
14 | COc1ccc(CCNc2nc(C)cc(C)n2)cc1OC.Cl | > 48.6 µg/mL
15 | CNC(=O)C(NC(=O)c1ccccc1)=C(C)C | > 34.8 µg/mL
16 | CCc1nnc(NC(=O)CCNC(=O)c2ccccc2Cl)s1 | > 50.8 µg/mL
17 | O=C(Nc1ccncc1)C1CC(=O)N(c2ccc(F)cc2)C1 (configuration not stated) | 39.3 µg/mL (≈ 131 µM)
18 | COC(=O)c1sccc1NC(=O)Nc1ccc(OC)cc1 | 40 µg/mL (≈ 131 µM)
19 | Cc1ccc(NC(=O)NCc2cccnc2)cc1C | 38.2 µg/mL (≈ 150 µM)
20 | O=c1ccc2cc3c([nH]c4ccc(Br)cc43)oc-2c1O | > 49.5 µg/mL
21 | CCC(=O)Nc1ccc2c(c1)nc(CN1CCCCC1)n2C | > 45.1 µg/mL
22 | CN1CCN(C(=O)c2cc3ccccc3cc2O)CC1 | > 40.5 µg/mL
23 | Cc1oc2ccccc2c1CNC(=O)N(C)C | > 34.8 µg/mL
24 | COc1ccc(Cl)cc1NC(=O)COC(=O)c1ccc(Br)o1 | 2.6 µg/mL (≈ 6.69 µM)
25 | CC(=NCCN(C)C)c1c(O)n(Cc2ccccc2)c(=O)[nH]c1=O | > 49.6 µg/mL

Row | SMILES | solubility kinetic
26 | CN(c1ccc(C(=O)N2CCOCC2)cc1)S(=O)(=O)c1cccs1 | 46.9 µg/mL (≈ 128 µM)
27 | CC(C)(C#N)NC(=O)C(=O)c1c(-c2ccccc2)cc2ccccn12 | > 49.7 µg/mL
28 | Nn1c(SCC(=O)NC2CCCc3ccccc32)nnc1C1CC1 (configuration not stated) | > 51.5 µg/mL
29 | CN1C(=O)CSC1=Nc1cccc(C(=O)O)c1 | > 37.5 µg/mL
30 | Cc1nc(N)c(C#N)c(-c2cccnc2)c1-c1ccccc1 | 0.6 µg/mL (≈ 2.1 µM)
31 | COc1cccc(NC(=S)NC(=O)c2cccnc2)c1 | 40 µg/mL (≈ 139 µM)
32 | COc1cc(C(=O)COC(=O)c2ccncc2)cc(OC)c1OC | > 49.7 µg/mL
33 | CC(C)CN1CCNC(=O)C1CC(=O)N(C)CC1CCOCC1 (configuration not stated) | 45.7 µg/mL (≈ 140 µM)
34 | Cc1csc(NC(=O)C2CC(=O)N(c3ccc(C)c(C)c3)C2)n1 (configuration not stated) | 42.4 µg/mL (≈ 129 µM)
35 | COc1cccc(CN(C)C(=O)c2cc(S(=O)(=O)NC3CCCCC3)ccc2C)c1 | 45.3 µg/mL (≈ 105 µM)
36 | CC(=O)CC1=NC(C)(C)Cc2ccccc21 | 17.2 µg/mL (≈ 79.9 µM)
37 | O=C(O)c1ccccc1C(=O)NCc1ccc2c(c1)OCO2 | 44.9 µg/mL (≈ 150 µM)
38 | O=C1Nc2ccccc2Nc2ccc([N+](=O)[O-])cc21 | 1.1 µg/mL (≈ 4.31 µM)
39 | O=C(COc1cccnc1[N+](=O)[O-])N1CCC(Cc2ccccc2)CC1 | 51.9 µg/mL (≈ 146 µM)
40 | Cc1nc(SCC(=O)NCc2ccc3c(c2)OCO3)nc(C)c1C | > 51.8 µg/mL
41 | O=C(CN1C(=O)NC2(CCCCCC2)C1=O)NCc1ccccc1Cl | > 54.6 µg/mL
42 | N#C/C(=C\c1ccc[nH]1)C(=O)N1CCCCC1 | > 34.4 µg/mL
43 | CC1CN(C(=O)COC(=O)c2ccc(F)cc2Cl)CC(C)O1 (configuration not stated) | 43.1 µg/mL (≈ 131 µM)
44 | COc1ccccc1NC(=O)COc1ccc2c(c1)OCO2 | 2.5 µg/mL (≈ 8.3 µM)
45 | COc1ccc(/C=C2/C(=O)ON=C2C)cc1Cl | 23.6 µg/mL (≈ 93.8 µM)
46 | O=C(O)C(=O)O.c1ccc2c(CCNC3CCCCC3)c[nH]c2c1 | > 49.9 µg/mL
47 | CN(C)S(=O)(=O)c1ccc(Cl)c(C(=O)NC2=NCCS2)c1 | > 52.2 µg/mL
48 | O=C(Nc1cccnc1)Nc1cccc(F)c1 | > 34.7 µg/mL
49 | CC(C)(C)NC(=O)NC(=O)COC(=O)CNC(=O)C1CCCCC1 | 40.9 µg/mL (≈ 120 µM)
50 | COc1ccc(CCC(=O)N2CCN(c3ccc(OC)cc3)CC2)cc1 | 41 µg/mL (≈ 116 µM)

Row | SMILES | solubility kinetic
51 | CCOC(=O)c1c(C)noc1-c1ccc(Br)o1 | < 0.6 µg/mL
52 | CCC(C(=O)Nc1ccc(Cl)cc1)N1CCCC1=O (configuration not stated) | 41.3 µg/mL (≈ 147 µM)
53 | Cc1cc(NCc2cccnc2)no1 | 28 µg/mL (≈ 148 µM)
54 | CC(C)Oc1nc(-c2ccc(Cl)cc2)nc2ccccc12 | < 0.3 µg/mL
55 | CC(CN1CCCCC1)NC(=O)c1cccs1 (configuration not stated) | > 37.9 µg/mL
56 | CN1CCN(C(=O)c2ccc(-c3cccs3)s2)CC1 | > 43.9 µg/mL
57 | OCCNc1nc(-c2ccccc2)nc2c1oc1ccccc12 | 0.3 µg/mL (≈ 0.983 µM)
58 | Cc1ccc2c(c1)N=C(c1ccccc1)CC(C(Cl)Cl)=N2 | 7.1 µg/mL (≈ 22.4 µM)
59 | O=C(Nc1ccccc1)Nc1ccc(Cl)nc1Cl | 3.9 µg/mL (≈ 13.8 µM)
60 | COc1ccc(CN(C(=O)c2cccs2)c2ccccc2)cc1 | 8.8 µg/mL (≈ 27.2 µM)
61 | C=CCN1C(=O)c2ccccc2NC1c1cc(Br)cs1 (configuration not stated) | 41.1 µg/mL (≈ 118 µM)
62 | Cc1ccc(S(=O)(=O)N(C)CC(=O)Nc2cccnc2)cc1 | 41.5 µg/mL (≈ 130 µM)
63 | CCOC(=O)/C(C#N)=C1\C(=O)N(Cc2ccccc2)c2ccccc21 | 1.3 µg/mL (≈ 3.91 µM)
64 | CC(C)(C)Nc1nc(Cl)nc(NCCN2CCOCC2)n1 | 46.1 µg/mL (≈ 146 µM)
65 | CN(CCc1ccccc1)C1CCCN(S(=O)(=O)N(C)C)C1 (configuration not stated) | > 48.8 µg/mL
66 | CN(C)/C(=N\O)c1c(Cl)cccc1Cl | > 35 µg/mL
67 | CCc1cccc(NC(=O)COC(=O)/C=C/c2cccs2)c1 | 8.2 µg/mL (≈ 26 µM)
68 | CC(C)(C)C1CCC(C(=O)Nc2cccnc2)CC1 (configuration not stated) | 6.3 µg/mL (≈ 24.2 µM)
69 | COc1cccc(CC(=O)NC2CCSc3ccccc32)c1 (configuration not stated) | 20.9 µg/mL (≈ 66.7 µM)
70 | Cc1ccc(C2CC(=O)C=C(NCc3ccccc3)C2)cc1 (configuration not stated) | 12.7 µg/mL (≈ 43.6 µM)
71 | CCCN1CCC(NCC(C)c2ccccc2)CC1 (configuration not stated) | 38.8 µg/mL (≈ 149 µM)
72 | CC1CN=C(Nc2ccc(F)cc2)S1 (configuration not stated) | > 31.5 µg/mL
73 | O=C(CN1C(=O)NC2NC(=O)NC21)N/N=C/c1ccc(F)cc1 (configuration not stated) | > 48 µg/mL
74 | Cc1cnc(C(=O)OCC(=O)c2ccc(F)cc2)cn1 | > 41.1 µg/mL
75 | CNc1nc(-c2ccccc2)cc(-c2ccccc2)n1 | 1.4 µg/mL (≈ 5.36 µM)

Row | SMILES | solubility kinetic
76 | Cc1ccc(S(=O)(=O)N2CCN(C(=O)COC(=O)CNC(=O)c3ccc(C(C)(C)C)cc3)CC2)c(C)c1 | 16.5 µg/mL (≈ 31.2 µM)
77 | Cc1ccc(/C=C2\SC(=S)N(c3cccnc3)C2=O)cc1 | < 0.3 µg/mL
78 | COC(=O)Cc1c(O)ccn(Cc2ccc(OC)c(OC)c2)c1=O | > 50 µg/mL
79 | CCOC(=O)c1sc(=S)n(C)c1NC(=O)c1ccc(OC)cc1 | 9.1 µg/mL (≈ 25.8 µM)
80 | Cc1nc2cc3c(cc2s1)OCO3 | 13.1 µg/mL (≈ 67.8 µM)
81 | CC1CCc2cc(F)ccc2N1C(=O)CCl (configuration not stated) | > 36.3 µg/mL
82 | Cl.Fc1ccccc1Nc1nc(Cl)nc(Cl)n1 | > 44.3 µg/mL
83 | N#CCN1C(=O)C(=O)N(Cc2cccc(C(F)(F)F)c2)C1=O | 42.6 µg/mL (≈ 137 µM)
84 | CC(CCN1CCOCC1)c1ccccc1 (configuration not stated) | 19.3 µg/mL (≈ 88 µM)
85 | Oc1c(Cl)cc(Cl)c2c1NCCC2 | 7 µg/mL (≈ 32.1 µM)
86 | COc1ccc(CNC(=O)COc2cccnc2[N+](=O)[O-])cc1 | > 47.6 µg/mL
87 | Nc1nc(Nc2ccccc2)sc1C(=O)c1ccccc1 | 4.3 µg/mL (≈ 14.6 µM)
88 | Cc1c(N)cc(N)cc1C(=O)O | > 24.9 µg/mL
89 | CCOc1ccc(NC(=O)c2c3c(nc4ccccc24)CCC3)cc1 | 1.4 µg/mL (≈ 4.21 µM)
90 | CCCCc1nnc(SCC(=O)Nc2nccs2)n1CC | > 48.8 µg/mL
91 | CC(C)(C)c1ccc(C(=O)O/N=C(\N)c2ccccn2)cc1 | 2.4 µg/mL (≈ 8.07 µM)
92 | O=C(CSCc1ccccc1F)NCc1ccc(F)cc1 | > 46.1 µg/mL
93 | CC1CC(C)CN(C(=O)CSc2nnc(N)s2)C1 (configuration not stated) | > 43 µg/mL
94 | C=CCn1c(C)cc(C(=O)Cn2c(C(C)O)nc3ccccc32)c1C (configuration not stated) | 29.4 µg/mL (≈ 87.1 µM)
95 | Br.CN1CCN(C(=O)Cc2ccccc2)CC1 | > 44.9 µg/mL
96 | CN(C)c1ccc(C(=O)OCc2cc(=O)n3ccsc3n2)cc1 | 3.8 µg/mL (≈ 11.5 µM)
97 | Cc1ccc(NC(=O)C(=O)NCCCN2CCCC2=O)c(C)c1 | > 47.6 µg/mL
98 | O=C(Nc1ccc(F)cc1)C1COc2ccccc2O1 (configuration not stated) | 39.8 µg/mL (≈ 146 µM)
99 | COc1ccc(CCNCc2ccsc2)cc1OC | 37.1 µg/mL (≈ 134 µM)
100 | NC(=O)c1ccc(NC(=O)COC(=O)/C=C/c2ccc(Br)o2)cc1 | 7.3 µg/mL (≈ 18.6 µM)

Row | SMILES | solubility kinetic
101 | Cc1ccc2nc(N3CC(C)OC(C)C3)nc(-c3ccccc3)c2c1 (configuration not stated) | 2.2 µg/mL (≈ 6.6 µM)
102 | COc1ccc([N+](=O)[O-])cc1NC(=O)c1ccco1 | 4.3 µg/mL (≈ 16.4 µM)
103 | CCCN1C(=O)/C(=C/c2ccc3c(c2)OCO3)NC1=S | 1.9 µg/mL (≈ 6.54 µM)
104 | CC1=C(C(=O)OC2CCCCC2)C(c2ccccc2)NC(=O)N1 (configuration not stated) | 11.3 µg/mL (≈ 35.9 µM)
105 | CC(C)N(Cc1ccc(F)cc1)C(=O)c1cc2ccccc2oc1=O | 0.8 µg/mL (≈ 2.36 µM)
106 | COc1ccc(CCNC(=O)Cc2ccsc2)cc1 | > 41.3 µg/mL
107 | Cc1[nH]c2ccc(C(=O)NCc3ccccn3)cc2c1C | > 41.9 µg/mL
108 | CC(C)[C@H](NS(=O)(=O)c1ccccc1)C(=O)OCC(=O)NC(=O)NC1CCCCC1 | > 65.9 µg/mL
109 | Cc1cc(C)c2nc(N(CCN(C)C)C(=O)c3ccc4ccccc4c3)sc2c1.Cl | 2.3 µg/mL
110 | CCOc1cc(C(=O)NC2CC(C)(C)NC(C)(C)C2)cc(OCC)c1OCC | > 58.9 µg/mL
111 | COc1ccc(C(=O)CC(=O)C(=O)Nc2ccc(Cl)cc2)cc1 | 5.5 µg/mL (≈ 16.6 µM)
112 | COC(=O)C(CC(C)C)NC(=O)c1cccs1 (configuration not stated) | > 38.3 µg/mL
113 | CCCNC(=O)COC(=O)/C(C#N)=C/c1cc(C)n(CCC)c1C | 1.6 µg/mL (≈ 4.83 µM)
114 | COC(=O)c1cccn(CC(=O)c2ccc(Cl)cc2)c1=O | > 45.9 µg/mL
115 | CC(C)C/C(=N/O)c1cn(C)c2ccccc12 | 21.5 µg/mL (≈ 93.4 µM)
116 | CC(=O)Nc1ccc(NC(=O)CCOc2cc(C)ccc2C)cc1 | 2 µg/mL (≈ 6.13 µM)
117 | CCOC(=O)C(C)Oc1ccc(NC(=O)C(Cl)Cl)cc1 (configuration not stated) | > 48 µg/mL
118 | O=C(CCc1ccccc1)Nc1ccc(S(=O)(=O)NC2=NCCCCC2)cc1 | 56.6 µg/mL (≈ 142 µM)
119 | CCOC(=O)c1ccccc1NC(=O)C1CSC2(C)CCC(=O)N12 (configuration not stated) | > 52.3 µg/mL
120 | O=C(CN1c2cccc3cccc(c23)S1(=O)=O)Nc1ccccc1 | 0.4 µg/mL (≈ 1.18 µM)
121 | COc1ccc(-n2ccc(=O)c(C(=O)O)n2)cc1 | > 36.9 µg/mL
122 | COc1cccc(C=Nc2ccc(N3CCOCC3)cc2)c1O | 33.7 µg/mL (≈ 108 µM)
